Results from ChEMBL document CHEMBL1201862, “PubChem BioAssay data set” (2004).
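Briefly, cells in 96-well plates were exposed to five compound concentrations for 48 h, and endpoints were estimated by linear interpolation. GI50 marks 50% less growth.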 Activity calls are given as the source filed them. No stated cut-off is given here; in the data, active = GI50 up to about 1.1 µM and inactive = higher.

Key:
Experiment in all cases: inhibition of tumour cell growth, NCI panel, 48 h
CCRF-CEM = test system: CCRF-CEM
BT-549 = test system: BT-549
MDA-N = test system: MDA-N
MDA-MB-231 = test system: MDA-MB-231
MCF7 = test system: MCF7
MDA-MB-435 = test system: MDA-MB-435
OVCAR-4 = test system: OVCAR-4
TK-10 = test system: TK-10
MOLT-4 = test system: MOLT-4
SW-620 = test system: SW-620
NCI-H226 = test system: NCI-H226
SF-539 = test system: SF-539
HCT-116 = test system: HCT-116
LOX IMVI = test system: LOX IMVI
SK-MEL-2 = test system: SK-MEL-2
NCI-H460 = test system: NCI-H460
RPMI-8226 = test system: RPMI-8226
SNB-75 = test system: SNB-75
EKVX = test system: EKVX
NCI-H522 = test system: NCI-H522
OVCAR-5 = test system: OVCAR-5
COLO 205 = test system: COLO 205
U-251 = test system: U-251
SK-OV-3 = test system: SK-OV-3
SF-295 = test system: SF-295
SK-MEL-5 = test system: SK-MEL-5
RXF 393 = test system: RXF 393
OVCAR-3 = test system: OVCAR-3
UO-31 = test system: UO-31
DU-145 = test system: DU-145
Malme-3M = test system: Malme-3M
A549 = test system: A549
SR = test system: SR
KM12 = test system: KM12
A498 = test system: A498
SNB-19 = test system: SNB-19
SF-268 = test system: SF-268
NCI-H23 = test system: NCI-H23
HT-29 = test system: HT-29
HCT-15 = test system: HCT-15
HCC 2998 = test system: HCC 2998
IGROV-1 = test system: IGROV-1
OVCAR-8 = test system: OVCAR-8
M14 = test system: M14
HOP-92 = test system: HOP-92
Hs-578T = test system: Hs-578T
PC-3 = test system: PC-3
ACHN = test system: ACHN
T47D = test system: T47D
HOP-62 = test system: HOP-62
UACC-62 = test system: UACC-62
SN12C = test system: SN12C
786-0 = test system: 786-0
SK-MEL-28 = test system: SK-MEL-28
UACC-257 = test system: UACC-257
CAKI-1 = test system: CAKI-1
K562 = test system: K562
NCI/ADR-RES = test system: NCI/ADR-RES
HL-60 = test system: HL-60

Question: Which results are given for COC(=O)/C=C/c1ccc(OP(=O)(O)O)c(OC)c1?
Answer: GI50 (CCRF-CEM): > 100 µM (inactive); GI50 (BT-549): > 100 µM (inactive); GI50 (MDA-N): > 100 µM (inactive); GI50 (MDA-MB-231): > 100 µM (inactive); GI50 (MCF7): > 100 µM (inactive); GI50 (MDA-MB-435): > 100 µM (inactive); GI50 (OVCAR-4): > 100 µM (inactive); GI50 (TK-10): > 100 µM (inactive); GI50 (MOLT-4): > 100 µM (inactive); GI50 (SW-620): > 100 µM (inactive); GI50 (NCI-H226): > 100 µM (inactive); GI50 (SF-539): > 100 µM (inactive); GI50 (HCT-116): > 100 µM (inactive); GI50 (LOX IMVI): > 100 µM (inactive); GI50 (SK-MEL-2): > 100 µM (inactive); GI50 (NCI-H460): > 100 µM (inactive); GI50 (RPMI-8226): > 100 µM (inactive); GI50 (SNB-75): > 100 µM (inactive); GI50 (EKVX): > 100 µM (inactive); GI50 (NCI-H522): > 100 µM (inactive); GI50 (OVCAR-5): > 100 µM (inactive); GI50 (COLO 205): > 100 µM (inactive); GI50 (U-251): > 100 µM (inactive); GI50 (SK-OV-3): > 100 µM (inactive); GI50 (SF-295): > 100 µM (inactive); GI50 (SK-MEL-5): > 100 µM (inactive); GI50 (RXF 393): > 100 µM (inactive); GI50 (OVCAR-3): > 100 µM (inactive); GI50 (UO-31): > 100 µM (inactive); GI50 (DU-145): > 100 µM (inactive); GI50 (Malme-3M): > 100 µM (inactive); GI50 (A549): > 100 µM (inactive); GI50 (SR): > 100 µM (inactive); GI50 (KM12): > 100 µM (inactive); GI50 (A498): > 100 µM (inactive); GI50 (SNB-19): > 100 µM (inactive); GI50 (SF-268): > 100 µM (inactive); GI50 (NCI-H23): > 100 µM (inactive); GI50 (HT-29): > 100 µM (inactive); GI50 (HCT-15): > 100 µM; GI50 (HCC 2998): > 100 µM (inactive); GI50 (IGROV-1): > 100 µM (inactive); GI50 (OVCAR-8): > 100 µM (inactive); GI50 (M14): > 100 µM (inactive); GI50 (HOP-92): > 100 µM (inactive); GI50 (Hs-578T): > 100 µM (inactive); GI50 (PC-3): > 100 µM (inactive); GI50 (ACHN): > 100 µM (inactive); GI50 (T47D): > 100 µM (inactive); GI50 (HOP-62): > 100 µM (inactive); GI50 (UACC-62): > 100 µM (inactive); GI50 (SN12C): > 100 µM (inactive); GI50 (786-0): > 100 µM (inactive); GI50 (SK-MEL-28): > 100 µM (inactive); GI50 (UACC-257): > 100 µM (inactive); GI50 (CAKI-1): > 100 µM (inactive)

Question: COc1cccc(/C=N/n2c(-c3ccccc3)n[nH]c2=O)c1 was tested. Which GI50 (K562) did it give?
Answer: > 100 µM (inactive)

Question: And the GI50 (CCRF-CEM)?
Answer: > 100 µM (inactive)

Question: And the GI50 (BT-549)?
Answer: 26.9 µM (inactive)

Question: What about the GI50 (MDA-N) of the same compound?
Answer: > 100 µM (inactive)

Question: What about the GI50 (MDA-MB-231) of the same compound?
Answer: 29.5 µM (inactive)

Question: And the GI50 (MCF7)?
Answer: 75.5 µM (inactive)

Question: What about the GI50 (MDA-MB-435) of the same compound?
Answer: > 100 µM (inactive)

Question: And the GI50 (OVCAR-4)?
Answer: > 100 µM (inactive)

Question: And the GI50 (MOLT-4)?
Answer: > 100 µM (inactive)

Question: And the GI50 (SW-620)?
Answer: > 100 µM (inactive)

Question: And the GI50 (NCI-H226)?
Answer: 43.7 µM (inactive)

Question: And the GI50 (SF-539)?
Answer: 28.1 µM (inactive)

Question: What about the GI50 (HCT-116) of the same compound?
Answer: 28.2 µM (inactive)

Question: And the GI50 (SK-MEL-2)?
Answer: 34.6 µM (inactive)

Question: And the GI50 (NCI-H460)?
Answer: 42.2 µM (inactive)

Question: What about the GI50 (RPMI-8226) of the same compound?
Answer: > 100 µM (inactive)

Question: And the GI50 (SNB-75)?
Answer: 34.3 µM (inactive)

Question: And the GI50 (EKVX)?
Answer: > 100 µM (inactive)

Question: What about the GI50 (OVCAR-5) of the same compound?
Answer: > 100 µM (inactive)

Question: And the GI50 (COLO 205)?
Answer: > 100 µM (inactive)

Question: And the GI50 (U-251)?
Answer: 34.5 µM (inactive)

Question: And the GI50 (SK-OV-3)?
Answer: 44.2 µM (inactive)

Question: What about the GI50 (SF-295) of the same compound?
Answer: 21.2 µM (inactive)

Question: And the GI50 (OVCAR-3)?
Answer: > 100 µM (inactive)

Question: And the GI50 (UO-31)?
Answer: > 100 µM (inactive)

Question: What about the GI50 (DU-145) of the same compound?
Answer: 49.5 µM (inactive)

Question: And the GI50 (Malme-3M)?
Answer: > 100 µM (inactive)

Question: What about the GI50 (A549) of the same compound?
Answer: 91.2 µM (inactive)

Question: What about the GI50 (KM12) of the same compound?
Answer: 85.5 µM (inactive)

Question: And the GI50 (A498)?
Answer: 24.4 µM (inactive)

Question: And the GI50 (SNB-19)?
Answer: 35.7 µM (inactive)

Question: And the GI50 (SF-268)?
Answer: 17.5 µM (inactive)

Question: And the GI50 (NCI-H23)?
Answer: 27.3 µM (inactive)

Question: And the GI50 (HT-29)?
Answer: > 100 µM (inactive)

Question: And the GI50 (HCT-15)?
Answer: > 100 µM

Question: And the GI50 (HCC 2998)?
Answer: > 100 µM (inactive)

Question: And the GI50 (OVCAR-8)?
Answer: 29.8 µM (inactive)

Question: What about the GI50 (M14) of the same compound?
Answer: > 100 µM (inactive)

Question: What about the GI50 (Hs-578T) of the same compound?
Answer: 22.7 µM (inactive)

Question: What about the GI50 (PC-3) of the same compound?
Answer: > 100 µM (inactive)

Question: And the GI50 (ACHN)?
Answer: > 100 µM (inactive)

Question: And the GI50 (T47D)?
Answer: 27.5 µM (inactive)

Question: And the GI50 (HOP-62)?
Answer: 25.9 µM (inactive)

Question: And the GI50 (UACC-62)?
Answer: 72.4 µM (inactive)

Question: What about the GI50 (SN12C) of the same compound?
Answer: 87.7 µM (inactive)

Question: And the GI50 (786-0)?
Answer: 40.8 µM (inactive)

Question: What about the GI50 (SK-MEL-28) of the same compound?
Answer: > 100 µM (inactive)

Question: And the GI50 (UACC-257)?
Answer: 42.6 µM (inactive)

Question: And the GI50 (CAKI-1)?
Answer: 53 µM (inactive)

Question: And the GI50 (NCI/ADR-RES)?
Answer: 39.4 µM (inactive)

Question: What does the source list for COc1cc(/C=C2\C(=O)N(c3ccccc3Cl)C(c3ccccc3)S2(=O)=O)cc(OC)c1OC (stereo unspecified)?
Answer: GI50 (K562): 22 µM (inactive); GI50 (CCRF-CEM): 16 µM (inactive); GI50 (BT-549): 36 µM (inactive); GI50 (MDA-N): 15.2 µM (inactive); GI50 (MDA-MB-231): 49.9 µM (inactive); GI50 (MCF7): 25.6 µM (inactive); GI50 (MDA-MB-435): 33.3 µM (inactive); GI50 (OVCAR-4): 57.3 µM (inactive); GI50 (TK-10): 62.7 µM (inactive); GI50 (MOLT-4): 15.3 µM (inactive); GI50 (SW-620): 37.3 µM (inactive); GI50 (NCI-H226): 42 µM (inactive); GI50 (SF-539): 20 µM (inactive); GI50 (HCT-116): 22.9 µM (inactive); GI50 (LOX IMVI): 21.7 µM (inactive); GI50 (SK-MEL-2): 44.1 µM (inactive); GI50 (NCI-H460): 52.2 µM (inactive); GI50 (RPMI-8226): 17.2 µM (inactive); GI50 (EKVX): 41.4 µM (inactive); GI50 (NCI-H522): 20.9 µM (inactive); GI50 (OVCAR-5): 20.9 µM (inactive); GI50 (COLO 205): 36.4 µM (inactive); GI50 (U-251): 24.2 µM (inactive); GI50 (SK-OV-3): 30.7 µM (inactive); GI50 (SF-295): 34 µM (inactive); GI50 (SK-MEL-5): 18.6 µM (inactive); GI50 (RXF 393): 19.5 µM (inactive); GI50 (OVCAR-3): 47.4 µM (inactive); GI50 (UO-31): 30.3 µM (inactive); GI50 (DU-145): 59 µM (inactive); GI50 (Malme-3M): 28.7 µM (inactive); GI50 (A549): 36.8 µM (inactive); GI50 (KM12): 27.2 µM (inactive); GI50 (A498): > 100 µM (inactive); GI50 (SNB-19): 34.7 µM (inactive); GI50 (SF-268): 46.7 µM (inactive); GI50 (NCI-H23): 39.1 µM (inactive); GI50 (HT-29): 16.3 µM (inactive); GI50 (HCT-15): 44.7 µM; GI50 (HCC 2998): > 100 µM (inactive); GI50 (OVCAR-8): 45.8 µM (inactive); GI50 (M14): 31.9 µM (inactive); GI50 (HOP-92): 41.3 µM (inactive); GI50 (Hs-578T): 46.5 µM (inactive); GI50 (ACHN): > 100 µM (inactive); GI50 (T47D): 32.8 µM (inactive); GI50 (HOP-62): 53 µM (inactive); GI50 (UACC-62): 31.9 µM (inactive); GI50 (HL-60): 28.6 µM (inactive); GI50 (SN12C): 20.8 µM (inactive); GI50 (786-0): 31.2 µM (inactive); GI50 (SK-MEL-28): 39 µM (inactive); GI50 (UACC-257): 51.1 µM (inactive); GI50 (CAKI-1): 59.7 µM (inactive); GI50 (NCI/ADR-RES): 29.6 µM (inactive)
